The values below come from patent US4504655A, “Substances potentiating the activity of antibiotics and their production” (Takeda Chemical Industries, Ltd., priority 1981, dated 1985).

Several values for one entry are separate records, joined by “and”; a condition that tells them apart may be missing. Equal values may be shown once. Entries after “also recorded” stand apart in the source; their conditions may differ. Where a name gives a salt, the structure may show the parent alone.

Data set [1] is described as follows: Stability in aqueous solution. The note with it: pH 3-9, heating at 60° C. for 10 minutes. It counts as physicochemical.
The next data set in a line: Solubility. The data set is classed as physicochemical.
Data set [2] deals with Escherichia coli IFO 12734. The data set can be described thus: Inhibition of growth of Escherichia coli in liquid culture (absorbance at 600 nm). The data set is classed as cell-based.
In data set [3] the test system is Proteus mirabilis ATCC 21100. Briefly: Antibiotic-potentiating activity, paper disc growth inhibition zone, Proteus mirabilis ATCC 21100. It counts as cell-based. Here is the method:
(§1) *The test was performed using a bouillon agar medium containing the
antibiotic as specified and a paper disc, 8 mm in diameter. […]
*The test was performed under the same conditions as noted for Table 1
except for the test organism and the concentration of each coexisting

Data set [4] deals with Escherichia coli IFO 12734. The data set can be described thus: Inhibition of growth of Escherichia coli in liquid culture (absorbance at 600 nm). The data set is classed as cell-based. The method, then:
Table 5: Inhibition of growth of Escherichia coli IFO 12734 in the copresence of F2 (obtained in Example 1) and cephalexin or cefmenoxime.
(§2) To 8 ml of YAB medium (1.75% Difco antibiotic medium No. 3, 0.5% Difco yeast extract) containing 12% (w/v) of sucrose, there were added 1 ml of water, 50 μg/ml cephalexin solution or 10 μg/ml cefmenoxime solution, and the medium was inoculated with 1 ml of a preculture in YAB medium at an early logarithmic growth phase and incubated with shaking at 37° C. for 2 hours. Thereafter, the absorbance of the culture broth was measured at 600 nm using a Shimadzu-Bausch & Lomb Spectronic 20 colorimeter.
This is another data set of the same source.

For a further data set, the system named is Escherichia coli. Briefly: Observation of the culture broths under a phase contrast microscope. The data set is classed as cell-based. The following applies: for Form of cells under phase contrast microscope: antibiotic alone, F2 or F3 not added. Here is the method:
as §2

Data set [5] relates to Escherichia coli IFO 12734. The data set can be described thus: Antibiotic-potentiating activity, paper disc growth inhibition zone, Escherichia coli IFO 12734. It counts as cell-based. The method, then: The potency of the compound of the formula (II) can be determined, for instance, by the cup method or paper disc method using bouillon agar containing 0.05 μg/ml of cefmenoxime with Escherichia coli IFO 12734 as the test organism. […]
as §1
antibiotic as specified and a paper disc, 8 mm in diameter.
**A paper disc, 8 mm in diameter, was impregnated with 25 μl of the […]

In data set [6] the test system is β-lactamase producing bacteria. The note with it: D. A. Leigh et al., 1981; cited from earlier work.
For the next data set, the system named is β-lactamases. The note with it: D. A. Leigh et al., 1981; cited from earlier work.
Where [7] appears, read: petroleum ether, hexane, diethyl ether, benzene, ethyl acetate and chloroform.
Where [8] appears, read: F3 of Example 5, 1 μg/ml in test solution, no addition.
Setting [9] is: F3 of Example 5, 5 μg/ml in test solution, no addition.
[10] abbreviates: F3 of Example 5, 25 μg/ml in test solution, no addition.
Setting [11] is: F3 of Example 5, 125 μg/ml in test solution, no addition.
Where [12] appears, read: F3 of Example 5, 1000 μg/ml in test solution, no addition.

As for `CC(=O)NC1C(OC2CC(C(=O)O)NC2CO)OC(CO)C(OS(=O)(=O)O)C1O` (stereo not shown) [F3 monosodium salt], in data set [1], the Stability result is given as “Stable”. Further, the Solubility result in “Solubility” (acetone) is “only sparingly soluble”; in “Solubility” (dimethyl sulfoxide), “soluble”; in the data set “Solubility” (ethanol and pyridine), “only sparingly soluble”; in “Solubility” (methanol), “soluble”; in “Solubility” (setting [7]) it was “Insoluble”; in the data set “Solubility” (water) it was “readily soluble”.

As to `CC(=O)NC1C(OC2CC(C(=O)O)NC2CO)OC(CO)C(OS(=O)(=O)O)C1O` (stereo not shown) [F3], the “Absorbance at 600 nm” value in data set [2] (final F3 (Example 5) 1 μg/ml, 1 μg/ml of cefmenoxime) is recorded as 2.2; in data set [2] (final F3 (Example 5) 1 μg/ml, no addition), 3.7; in [2] (final F3 (Example 5) 10 μg/ml, 1 μg/ml of cefmenoxime), 0.6; in data set [2] (final F3 (Example 5) 10 μg/ml, no addition) it was 3.7; in data set [2] (final F3 (Example 5) 100 μg/ml, 1 μg/ml of cefmenoxime) it was 0.6; in data set [2] (final F3 (Example 5) 100 μg/ml, no addition) it was 3.7. The “Diameter of growth inhibition zone” value is recorded as 9 mm in [3] (F3 of Example 5, 1 μg/ml in test solution, 0.01 μg/ml of cefmenoxime); less than 8 mm in data set [3] (F3 of Example 5, 1 μg/ml in test solution, 0.05 μg/ml of mecillinam); less than 8 mm in data set [3] (setting [8]); 12 mm in [3] (F3 of Example 5, 5 μg/ml in test solution, 0.01 μg/ml of cefmenoxime); 9 mm in data set [3] (F3 of Example 5, 5 μg/ml in test solution, 0.05 μg/ml of mecillinam); less than 8 mm in data set [3] (setting [9]). In addition, the “Diameter of growth inhibition zone” value in [3] (F3 of Example 5, 25 μg/ml in test solution, 0.01 μg/ml of cefmenoxime) is 21 mm; in data set [3] (F3 of Example 5, 25 μg/ml in test solution, 0.05 μg/ml of mecillinam), 13.5 mm; in [3] (setting [10]), less than 8 mm; in [3] (F3 of Example 5, 125 μg/ml in test solution, 0.01 μg/ml of cefmenoxime), 28.5 mm; in data set [3] (F3 of Example 5, 125 μg/ml in test solution, 0.05 μg/ml of mecillinam), 19 mm; in data set [3] (setting [11]), less than 8 mm. Also, the “Diameter of growth inhibition zone” value was 32.5 mm in data set [3] (F3 of Example 5, 1000 μg/ml in test solution, 0.01 μg/ml of cefmenoxime); 30 mm in data set [3] (F3 of Example 5, 1000 μg/ml in test solution, 0.05 μg/ml of mecillinam); less than 8 mm in data set [3] (setting [12]); less than 8 mm in [5] (F3 of Example 5, 1 μg/ml in test solution, 0.03 μg/ml of mecillinam); 10 mm in [5] (F3 of Example 5, 1 μg/ml in test solution, 0.05 μg/ml of cefmenoxime); less than 8 mm in data set [5] (setting [8]). Moreover, the “Diameter of growth inhibition zone” value is reported as less than 8 mm in data set [5] (F3 of Example 5, 5 μg/ml in test solution, 0.03 μg/ml of mecillinam); 12.5 mm in data set [5] (F3 of Example 5, 5 μg/ml in test solution, 0.05 μg/ml of cefmenoxime); less than 8 mm in data set [5] (setting [9]); 9 mm in data set [5] (F3 of Example 5, 25 μg/ml in test solution, 0.03 μg/ml of mecillinam); 15 mm in data set [5] (F3 of Example 5, 25 μg/ml in test solution, 0.05 μg/ml of cefmenoxime); less than 8 mm in data set [5] (setting [10]). For the same compound, the “Diameter of growth inhibition zone” value in [5] (F3 of Example 5, 125 μg/ml in test solution, 0.03 μg/ml of mecillinam) is 17.5 mm; in data set [5] (F3 of Example 5, 125 μg/ml in test solution, 0.05 μg/ml of cefmenoxime), 26 mm; in [5] (setting [11]) it was less than 8 mm; in data set [5] (F3 of Example 5, 1000 μg/ml in test solution, 0.03 μg/ml of mecillinam) it was 28.5 mm; in data set [5] (F3 of Example 5, 1000 μg/ml in test solution, 0.05 μg/ml of cefmenoxime) it was 38 mm; in [5] (setting [12]), less than 8 mm. Also, in [4] (in the presence of cephalexin or cefmenoxime, decrease in absorbance), the “Inhibition of growth of Escherichia coli” value was “inhibits the growth of Escherichia coli”. For the same compound, in the data set with Escherichia coli (in the presence of cephalexin or cefmenoxime), the “Swelling and bacteriolysis under phase contrast microscope” value was “partial swelling occurred and bacteriolysis proceeded”. Moreover, in the data set with Escherichia coli (in the presence of cephalexin or cefmenoxime, in dependence on the addition level), the “Elongation of cells under phase contrast microscope” value is “elongation was inhibited”.

On to `CC(=O)NC1C(OC2CC(C(=O)NCCS(=O)(=O)O)NC2CO)OC(CO)C(O)C1O` (stereo not shown) [F4], for which the “Diameter of growth inhibition zone” value in data set [5] (F4 of Example 7, 10 μg/ml in test solution, 0.03 μg/ml mecillinam) was less than 8 mm; in [5] (F4 of Example 7, 10 μg/ml in test solution, 0.05 μg/ml cefmenoxime) it was less than 8 mm; in [5] (F4 of Example 7, 10 μg/ml in test solution, no addition), less than 8 mm; in data set [5] (F4 of Example 7, 100 μg/ml in test solution, 0.03 μg/ml mecillinam) it was 13 mm; in data set [5] (F4 of Example 7, 100 μg/ml in test solution, 0.05 μg/ml cefmenoxime), 15 mm; in data set [5] (F4 of Example 7, 100 μg/ml in test solution, no addition), less than 8 mm. The “Diameter of growth inhibition zone” value was 23 mm in data set [5] (F4 of Example 7, 1000 μg/ml in test solution, 0.03 μg/ml mecillinam); 26 mm in [5] (F4 of Example 7, 1000 μg/ml in test solution, 0.05 μg/ml cefmenoxime); less than 8 mm in data set [5] (F4 of Example 7, 1000 μg/ml in test solution, no addition).

In the case of `CO/N=C(\C(=O)N[C@@H]1C(=O)N2C(C(=O)O)=C(CSc3nnnn3C)CS[C@H]12)c1csc(N)n1` [cefmenoxime, reference compound], the “Diameter of growth inhibition zone” value in data set [3] (0.01 μg/ml cefmenoxime alone (F2 or F3 0 μg/ml)) is listed as less than 8 mm; in data set [5] (0.05 μg/ml cefmenoxime alone (F2, F3 or F4 0 μg/ml)) it was less than 8 mm. The “Absorbance at 600 nm” value in data set [4] (1 μg/ml cefmenoxime alone (F2 or F3 0 μg/ml)) is 1.95 and 1.90 and 2.9. For the same compound, the “Form of cells under phase contrast microscope” value in the data set with Escherichia coli is “much elongated form”.

As for `CC1=C(C(=O)O)N2C(=O)[C@@H](NC(=O)[C@H](N)c3ccccc3)[C@H]2SC1` [cephalexin, reference compound], the “Absorbance at 600 nm” value in data set [4] (5 μg/ml cephalexin alone (F2 0 μg/ml)) is 2.35 and 2.15. In addition, the “Form of cells under phase contrast microscope” value in the data set with Escherichia coli is reported as “much elongated form”.

In the case of `O=C(O)[C@H]1/C(=C/CO)O[C@@H]2CC(=O)N21` [clavulanic acid], the “Potentiation of activity of β-lactam antibiotics against β-lactamase producing bacteria” value in data set [6] was “synergistically potentiates their activity”. Moreover, in the data set with β-lactamases, the “Inactivation of β-lactam antibiotics by β-lactamases” value is reported as “prevents inactivation”.

On to `CC(=O)NC1C(OC2CC(C(=O)NCCS(=O)(=O)O)NC2CO)OC(CO)C(OS(=O)(=O)O)C1O` (stereo not shown) [disodium salt of F2], for which the Stability result in [1] is recorded as “Stable”. Further, the Solubility result in the data set “Solubility” (acetone) is “Insoluble”; in “Solubility” (dimethyl sulfoxide), “soluble”; in “Solubility” (ethanol and pyridine) it was “spargingly soluble; also recorded: sparingly soluble”; in “Solubility” (methanol), “spargingly soluble; also recorded: sparingly soluble”; in the data set “Solubility” (setting [7]) it was “Insoluble”; in “Solubility” (water), “readily soluble”.

As to `CC1(C)S[C@@H]2[C@H](/N=C/N3CCCCCC3)C(=O)N2[C@H]1C(=O)O` [mecillinam, reference compound], the “Diameter of growth inhibition zone” value is less than 8 mm in data set [3] (0.05 μg/ml mecillinam alone (F2 or F3 0 μg/ml)) and less than 8 mm in data set [5] (0.03 μg/ml mecillinam alone (F2, F3 or F4 0 μg/ml)).

With `CC(=O)NC1C(OC2CC(C(=O)NCCS(=O)(=O)O)NC2CO)OC(CO)C(OS(=O)(=O)O)C1O` (stereo not shown) [monosodium salt of F2], the Stability entry in data set [1] is given as “Stable”. The Solubility result was “sparingly soluble” in the data set “Solubility” (acetone); “soluble” in “Solubility” (dimethyl sulfoxide); “sparingly soluble” in the data set “Solubility” (ethanol and pyridine); “soluble” in “Solubility” (methanol); “Insoluble” in the data set “Solubility” (setting [7]); “readily soluble” in “Solubility” (water).
